ChEMBL document CHEMBL1201862, “PubChem BioAssay data set” (2004)
The source made the active and inactive calls.

Columns and labels:
HEK293 [1] = assay: inhibition of NOD1-driven NF-kB reporter – cell-based, luminescence, uHTS, primary screen (AID 1578); assay type: functional; settings: Homo sapiens
HEK293 [2] = assay: cells; assay type: functional, cell-based; settings: Homo sapiens
[3] = molecular target: T1, Heat shock factor protein 1 (Mus musculus, UniProt P38532); assay: decrease of HSF1-responsive luciferase luminescence – cell-based, NIH3T3, dose retest, confirmation (AID 2382); assay type: functional;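 note: NIH3T3 fibroblasts with HSF1-driven luciferase reporter stressed by proteasome inhibitor MG132; luminescence from HSF1-driven luciferase expression after 8 hours of MG132 stress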
T1 sequence (P38532 whole entry): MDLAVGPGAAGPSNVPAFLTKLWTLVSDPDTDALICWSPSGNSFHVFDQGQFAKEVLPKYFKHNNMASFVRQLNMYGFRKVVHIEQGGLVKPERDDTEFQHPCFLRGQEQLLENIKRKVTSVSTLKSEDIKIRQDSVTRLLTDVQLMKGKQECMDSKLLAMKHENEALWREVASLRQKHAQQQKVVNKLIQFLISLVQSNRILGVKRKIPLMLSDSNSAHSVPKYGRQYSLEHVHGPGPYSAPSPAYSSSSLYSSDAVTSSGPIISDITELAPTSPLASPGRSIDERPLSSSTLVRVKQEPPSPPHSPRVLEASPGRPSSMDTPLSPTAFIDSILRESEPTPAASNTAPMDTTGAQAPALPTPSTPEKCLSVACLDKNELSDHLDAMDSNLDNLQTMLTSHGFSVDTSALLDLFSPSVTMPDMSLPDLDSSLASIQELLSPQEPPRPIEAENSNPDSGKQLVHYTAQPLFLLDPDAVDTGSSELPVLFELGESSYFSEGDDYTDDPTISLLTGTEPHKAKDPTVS

HEK293 [4] = assay: cells; assay type: functional, cell-based; settings: Homo sapiens; remark: listed apart in the source
[5] = molecular target: Nucleotide-binding oligomerization domain-containing protein 2 (Homo sapiens, UniProt Q9HC29); assay: inhibition of NOD2-driven NF-kB reporter – cell-based, luminescence, uHTS, HEK293 (AID 1566); assay type: functional
Chain of Nucleotide-binding oligomerization domain-containing protein 2 (Q9HC29 whole entry, the tested form may be a part): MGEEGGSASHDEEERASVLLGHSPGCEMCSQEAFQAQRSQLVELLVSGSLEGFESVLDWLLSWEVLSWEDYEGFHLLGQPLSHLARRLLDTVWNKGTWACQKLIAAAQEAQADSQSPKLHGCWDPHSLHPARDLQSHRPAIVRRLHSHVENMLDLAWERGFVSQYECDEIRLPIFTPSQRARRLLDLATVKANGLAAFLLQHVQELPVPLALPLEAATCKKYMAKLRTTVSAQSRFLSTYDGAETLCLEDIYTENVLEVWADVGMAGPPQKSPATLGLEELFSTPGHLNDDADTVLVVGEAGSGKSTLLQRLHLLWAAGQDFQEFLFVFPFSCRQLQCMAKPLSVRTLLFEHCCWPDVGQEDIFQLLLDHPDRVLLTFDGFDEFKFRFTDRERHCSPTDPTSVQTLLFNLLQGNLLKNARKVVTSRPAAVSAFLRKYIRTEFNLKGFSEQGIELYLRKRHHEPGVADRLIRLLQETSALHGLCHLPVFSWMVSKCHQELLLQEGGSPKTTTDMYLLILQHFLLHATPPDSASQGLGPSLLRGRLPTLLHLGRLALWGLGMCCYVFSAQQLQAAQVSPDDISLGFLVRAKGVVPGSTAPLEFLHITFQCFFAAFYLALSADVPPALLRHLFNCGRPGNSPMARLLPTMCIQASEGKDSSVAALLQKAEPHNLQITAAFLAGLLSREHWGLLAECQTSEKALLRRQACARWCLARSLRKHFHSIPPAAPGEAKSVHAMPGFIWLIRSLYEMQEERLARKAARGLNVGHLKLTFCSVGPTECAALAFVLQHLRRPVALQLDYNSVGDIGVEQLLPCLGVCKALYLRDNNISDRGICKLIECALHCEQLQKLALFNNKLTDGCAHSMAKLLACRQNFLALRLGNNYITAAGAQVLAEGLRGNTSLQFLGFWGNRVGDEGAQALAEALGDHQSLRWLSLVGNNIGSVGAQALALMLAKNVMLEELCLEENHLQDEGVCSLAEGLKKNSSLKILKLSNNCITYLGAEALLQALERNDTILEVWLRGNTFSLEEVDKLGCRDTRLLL

HEK293 [6] = assay: NOD2 signaling inhibitors in MDP-stimulated cells, cell-based, uHTS, luminescence (AID 2001); assay type: functional; settings: Homo sapiens
HEK293 [7] = assay: cells; assay type: functional, cell-based; settings: Homo sapiens; remark: listed apart in the source
Tumor necrosis factor = Tumor necrosis factor (Homo sapiens, UniProt P01375); assay: analog potency on TNFa NF-kB signaling – cell-based, revised, SAR follow-up (AID 2337); assay type: functional
Chain of Tumor necrosis factor (P01375 whole entry, the tested form may be a part): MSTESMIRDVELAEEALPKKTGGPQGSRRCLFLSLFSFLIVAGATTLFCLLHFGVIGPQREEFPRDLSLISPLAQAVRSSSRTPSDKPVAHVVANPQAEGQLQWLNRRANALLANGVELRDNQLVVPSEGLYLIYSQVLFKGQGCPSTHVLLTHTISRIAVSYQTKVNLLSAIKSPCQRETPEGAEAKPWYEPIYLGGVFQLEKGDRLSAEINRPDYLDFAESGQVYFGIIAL

[8] = molecular target: T2, Nucleotide-binding oligomerization domain-containing protein 1 (Homo sapiens, UniProt Q9Y239); assay: blockers of NOD1 pathway activity – revised, SAR follow-up (AID 2333); assay type: functional
T2 sequence (Q9Y239 whole entry): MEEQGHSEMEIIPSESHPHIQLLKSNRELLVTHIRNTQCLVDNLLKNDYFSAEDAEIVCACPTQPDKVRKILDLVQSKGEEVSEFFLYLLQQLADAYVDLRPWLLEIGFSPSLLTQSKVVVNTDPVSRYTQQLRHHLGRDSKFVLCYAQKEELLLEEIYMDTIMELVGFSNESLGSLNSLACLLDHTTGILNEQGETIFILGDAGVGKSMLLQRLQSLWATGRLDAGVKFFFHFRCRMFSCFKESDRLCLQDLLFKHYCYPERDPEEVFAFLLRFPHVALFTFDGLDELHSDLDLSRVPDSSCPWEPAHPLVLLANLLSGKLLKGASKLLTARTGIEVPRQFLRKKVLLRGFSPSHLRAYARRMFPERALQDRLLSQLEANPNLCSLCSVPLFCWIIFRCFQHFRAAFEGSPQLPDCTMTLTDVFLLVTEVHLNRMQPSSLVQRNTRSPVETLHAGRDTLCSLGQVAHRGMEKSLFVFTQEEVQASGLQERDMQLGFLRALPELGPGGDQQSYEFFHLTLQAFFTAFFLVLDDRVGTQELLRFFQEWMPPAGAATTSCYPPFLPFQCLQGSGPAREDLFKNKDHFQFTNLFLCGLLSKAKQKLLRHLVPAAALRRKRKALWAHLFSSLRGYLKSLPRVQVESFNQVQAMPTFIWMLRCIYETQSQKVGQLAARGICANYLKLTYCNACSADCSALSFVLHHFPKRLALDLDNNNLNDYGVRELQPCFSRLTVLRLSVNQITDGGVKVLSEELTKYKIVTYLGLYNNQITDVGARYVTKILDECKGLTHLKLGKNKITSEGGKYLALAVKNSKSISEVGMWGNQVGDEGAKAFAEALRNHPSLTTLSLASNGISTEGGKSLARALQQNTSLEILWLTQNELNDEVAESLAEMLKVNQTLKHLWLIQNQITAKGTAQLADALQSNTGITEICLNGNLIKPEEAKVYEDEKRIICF

[9] = reduction of Shn3 3'UTR-driven luciferase in osteoblasts – cell-based, Clone20 osteoblasts, firefly luciferase, cherry-picked, dose response (AID 624132); assay type: functional;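 note: firefly luciferase luminescence from reporter carrying the Shn3 3'UTR in osteoblasts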
[10] = non-specific 3'UTR reporter inhibition in Clone20-Shn3RL – cell-based, Renilla luciferase, cherry-picked, counter-screen for Shn3 inhibitor project, dose response (AID 624133); assay type: functional
HEK293 [11] = assay: cells; settings: Homo sapiens
Cytochrome P450 2C19 = Cytochrome P450 2C19 (Homo sapiens, UniProt P33261); assay: Cytochrome panel assay with activity outcomes. Panel member name: p450-cyp2c19 Compounds with AC50 equal or less than 10 uM are considered active; assay type: functional; settings: read-out: AC50
Chain of Cytochrome P450 2C19 (P33261 whole entry): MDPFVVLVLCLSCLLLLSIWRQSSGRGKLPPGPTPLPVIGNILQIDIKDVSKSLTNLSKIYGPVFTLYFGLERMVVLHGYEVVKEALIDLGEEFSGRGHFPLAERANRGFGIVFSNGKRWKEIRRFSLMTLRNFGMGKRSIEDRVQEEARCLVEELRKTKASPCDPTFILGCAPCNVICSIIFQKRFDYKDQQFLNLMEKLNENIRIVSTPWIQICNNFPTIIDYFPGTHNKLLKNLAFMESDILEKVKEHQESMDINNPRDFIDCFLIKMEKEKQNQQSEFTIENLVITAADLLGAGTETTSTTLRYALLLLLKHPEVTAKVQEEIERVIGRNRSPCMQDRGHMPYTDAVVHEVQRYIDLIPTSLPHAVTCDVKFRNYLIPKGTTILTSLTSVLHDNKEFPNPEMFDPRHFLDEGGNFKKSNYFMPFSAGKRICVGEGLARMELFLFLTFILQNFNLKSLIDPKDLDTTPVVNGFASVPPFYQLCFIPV

Cytochrome P450 2D6 = Cytochrome P450 2D6 (Homo sapiens, UniProt P10635);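 note: CYP2D6 member of a cytochrome P450 panel assay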
Chain of Cytochrome P450 2D6 (P10635 whole entry): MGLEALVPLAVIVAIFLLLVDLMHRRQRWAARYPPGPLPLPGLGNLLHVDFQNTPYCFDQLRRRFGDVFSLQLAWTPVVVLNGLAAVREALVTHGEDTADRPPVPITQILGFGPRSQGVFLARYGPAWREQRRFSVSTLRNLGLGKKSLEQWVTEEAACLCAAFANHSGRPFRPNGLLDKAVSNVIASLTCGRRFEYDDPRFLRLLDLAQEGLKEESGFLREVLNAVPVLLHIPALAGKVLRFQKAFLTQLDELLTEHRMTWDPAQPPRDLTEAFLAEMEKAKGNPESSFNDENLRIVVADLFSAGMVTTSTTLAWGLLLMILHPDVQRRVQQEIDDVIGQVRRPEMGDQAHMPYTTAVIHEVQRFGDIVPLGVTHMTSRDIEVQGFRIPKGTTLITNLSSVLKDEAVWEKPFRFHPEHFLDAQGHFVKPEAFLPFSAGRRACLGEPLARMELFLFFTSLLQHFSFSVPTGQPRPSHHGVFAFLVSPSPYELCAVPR

Cytochrome P450 1A2 = molecular target: T3, Cytochrome P450 1A2 (Homo sapiens, UniProt P05177);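 note: PubChem cytochrome P450 panel assay, CYP1A2 panel member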
T3 sequence (P05177 whole entry): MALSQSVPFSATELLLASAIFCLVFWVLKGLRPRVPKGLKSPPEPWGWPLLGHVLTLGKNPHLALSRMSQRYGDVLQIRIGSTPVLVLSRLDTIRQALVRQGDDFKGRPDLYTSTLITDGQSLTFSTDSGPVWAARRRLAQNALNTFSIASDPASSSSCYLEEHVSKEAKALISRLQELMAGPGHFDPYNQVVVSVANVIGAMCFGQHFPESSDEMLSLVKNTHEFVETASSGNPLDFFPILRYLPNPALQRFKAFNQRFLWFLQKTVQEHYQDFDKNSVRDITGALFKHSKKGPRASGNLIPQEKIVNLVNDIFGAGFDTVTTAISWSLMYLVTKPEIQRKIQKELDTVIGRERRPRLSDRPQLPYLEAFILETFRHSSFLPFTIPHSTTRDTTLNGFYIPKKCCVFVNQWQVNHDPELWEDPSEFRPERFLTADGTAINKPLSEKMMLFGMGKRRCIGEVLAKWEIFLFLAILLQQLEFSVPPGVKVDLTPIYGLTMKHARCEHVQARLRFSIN

Cytochrome P450 3A4 = Cytochrome P450 3A4 (Homo sapiens, UniProt P08684);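 note: CYP3A4 tested as one member of a cytochrome P450 panel screen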
Chain of Cytochrome P450 3A4 (P08684 whole entry): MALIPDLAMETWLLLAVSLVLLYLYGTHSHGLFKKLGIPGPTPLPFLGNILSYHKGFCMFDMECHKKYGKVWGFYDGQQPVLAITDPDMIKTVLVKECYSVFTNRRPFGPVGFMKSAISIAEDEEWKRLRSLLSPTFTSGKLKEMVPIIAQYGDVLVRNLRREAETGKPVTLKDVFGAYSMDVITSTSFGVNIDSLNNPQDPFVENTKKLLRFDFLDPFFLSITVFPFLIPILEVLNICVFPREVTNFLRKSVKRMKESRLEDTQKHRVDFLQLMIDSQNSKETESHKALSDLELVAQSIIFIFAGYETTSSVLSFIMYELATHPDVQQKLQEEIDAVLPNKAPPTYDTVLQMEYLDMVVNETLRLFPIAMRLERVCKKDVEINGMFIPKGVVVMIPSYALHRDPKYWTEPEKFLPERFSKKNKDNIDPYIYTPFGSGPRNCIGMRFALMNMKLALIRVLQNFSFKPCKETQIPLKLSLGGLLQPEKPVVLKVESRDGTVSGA

BJ [12] = assay: BJ-TERT fibroblast viability loss – cell-based, RAS-independent, luminescence, dose response (AID 1933); assay type: functional; settings: Homo sapiens
BJ [13] = assay: cells; assay type: functional, cell-based; settings: Homo sapiens
BJ [14] = assay: BJ-TERT-LT-ST fibroblast viability loss – cell-based, RAS-independent, luminescence, dose response (AID 1935); assay type: functional; settings: Homo sapiens;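 note: BJ fibroblasts immortalized with TERT plus LT and ST oncogenes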
[15] = DRD fibroblast viability loss – cell-based, non-viral oncogenic, luminescence, dose response (AID 1934); assay type: functional; settings: Homo sapiens
[16] = molecular target: T4, Replicative DNA helicase DnaB (Mycobacterium tuberculosis, UniProt P9WMR3); assay: DnaB intein splicing inhibitors, dose response, biochemical, cell-free fluorescence (AID 449749); assay type: functional
T4 sequence (P9WMR3 whole entry): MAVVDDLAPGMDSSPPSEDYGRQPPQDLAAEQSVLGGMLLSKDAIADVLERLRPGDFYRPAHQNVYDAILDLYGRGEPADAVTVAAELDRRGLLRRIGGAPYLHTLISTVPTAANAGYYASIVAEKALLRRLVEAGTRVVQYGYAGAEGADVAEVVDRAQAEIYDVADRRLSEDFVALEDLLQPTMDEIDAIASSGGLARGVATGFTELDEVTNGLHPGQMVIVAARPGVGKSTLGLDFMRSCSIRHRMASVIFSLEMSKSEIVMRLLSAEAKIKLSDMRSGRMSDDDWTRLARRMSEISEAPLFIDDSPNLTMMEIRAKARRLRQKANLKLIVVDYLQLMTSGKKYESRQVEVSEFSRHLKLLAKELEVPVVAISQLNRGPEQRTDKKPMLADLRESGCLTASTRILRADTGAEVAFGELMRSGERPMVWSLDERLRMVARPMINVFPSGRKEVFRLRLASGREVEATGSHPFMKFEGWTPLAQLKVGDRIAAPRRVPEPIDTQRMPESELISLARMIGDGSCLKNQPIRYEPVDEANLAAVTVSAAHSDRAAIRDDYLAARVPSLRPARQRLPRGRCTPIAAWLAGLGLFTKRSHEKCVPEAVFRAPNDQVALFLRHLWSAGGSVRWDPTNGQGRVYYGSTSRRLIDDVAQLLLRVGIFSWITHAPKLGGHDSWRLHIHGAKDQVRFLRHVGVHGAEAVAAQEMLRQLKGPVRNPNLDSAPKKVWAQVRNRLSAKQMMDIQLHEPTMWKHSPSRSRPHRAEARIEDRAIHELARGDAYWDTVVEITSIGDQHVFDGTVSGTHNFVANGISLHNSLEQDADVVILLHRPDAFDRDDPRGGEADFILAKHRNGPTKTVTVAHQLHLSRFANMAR

Protein RecA = molecular target: T5, Protein RecA (Mycobacterium tuberculosis, UniProt P9WHJ3); assay: Fluorescence Cell-Free Homogeneous Dose Retest to Identify Inhibitors of RecA-Intein Splicing Activity. [Related pubchem assays (depositor defined):AID2097, AID2223, AID489010, AID492950]; assay type: functional
T5 sequence (P9WHJ3 whole entry): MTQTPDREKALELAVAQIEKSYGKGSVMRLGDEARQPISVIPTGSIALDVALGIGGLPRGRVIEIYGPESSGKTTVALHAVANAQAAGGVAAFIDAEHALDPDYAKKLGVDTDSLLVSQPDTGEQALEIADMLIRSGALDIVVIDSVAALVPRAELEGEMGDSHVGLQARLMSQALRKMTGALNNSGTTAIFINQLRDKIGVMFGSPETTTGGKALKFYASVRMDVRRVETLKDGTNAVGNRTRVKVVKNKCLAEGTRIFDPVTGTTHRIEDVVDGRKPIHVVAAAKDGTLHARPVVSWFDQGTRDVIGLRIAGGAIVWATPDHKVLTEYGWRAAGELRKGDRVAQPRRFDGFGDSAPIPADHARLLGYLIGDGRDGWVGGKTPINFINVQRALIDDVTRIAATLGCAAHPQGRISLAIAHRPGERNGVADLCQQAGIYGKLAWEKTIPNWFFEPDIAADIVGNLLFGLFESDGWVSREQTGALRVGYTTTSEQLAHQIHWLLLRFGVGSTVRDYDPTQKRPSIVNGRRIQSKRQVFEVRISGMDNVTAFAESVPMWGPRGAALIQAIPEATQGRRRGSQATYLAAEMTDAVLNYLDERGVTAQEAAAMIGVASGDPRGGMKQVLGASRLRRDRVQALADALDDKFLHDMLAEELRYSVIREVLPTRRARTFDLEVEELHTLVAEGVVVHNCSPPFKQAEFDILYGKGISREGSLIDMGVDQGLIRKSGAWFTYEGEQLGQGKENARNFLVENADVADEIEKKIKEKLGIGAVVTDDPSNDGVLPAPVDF

SMILES: Cc1cc(C(=O)COC(=O)c2ccccc2Br)c(C)n1CC1CCCO1 (centres undefined)
- EC50 (HEK293 [1]): > 20 µM (inactive)
- IC50 (HEK293 [2]): < 0.312 µM (active)
- EC50 [3]: < 0.16 µM (active)
- IC50 (HEK293 [4]): > 20 µM (inactive)
- EC50 [5]: 0.46 µM (active)
- IC50 (HEK293 [6]): 0.036 µM (active)
- IC50 (HEK293 [7]): > 20 µM (inactive)
- IC50 (Tumor necrosis factor): 0.0456 µM (active)
- IC50 [8]: 4.8 µM (active)
- AC50 [9]: > 70 µM (inactive)
- AC50 [10]: 21.4 µM (active)
- IC50 (HEK293 [11]): > 20 µM (inactive)

SMILES: COc1ccc(C(C)=O)c(OC(=O)c2ccco2)c1
- AC50 (Cytochrome P450 2C19): 7.94 µM (inconclusive)
- AC50 (Cytochrome P450 2D6): inconclusive

SMILES: COC(=O)c1cc(OC)c(OC)cc1N=C(S)N1CCN(C)CC1
- AC50 (Cytochrome P450 1A2): 11.2 µM (inconclusive)
- AC50 (Cytochrome P450 3A4): 14.1 µM (inconclusive)
- AC50 (Cytochrome P450 2D6): inconclusive

SMILES: O=C(CCl)Nc1cc(-c2ccccc2)nn1-c1ccccc1
- EC50 (HEK293 [1]): 4.71 µM (active)
- EC50 (BJ [12]): 5.38 µM (inconclusive)
- IC50 (HEK293 [2]): 4.63 µM (active)
- EC50 (BJ [13]): 9.6 µM (active)
- IC50 (HEK293 [4]): 19.2 µM (active)
- EC50 [5]: > 20 µM (inactive)
- IC50 (HEK293 [6]): 7.21 µM (active)
- IC50 (HEK293 [7]): > 20 µM (inactive)
- EC50 (BJ [14]): 5.05 µM (active)
- EC50 [15]: 8.91 µM (active)
- AC50 [16]: > 380 µM (inactive)
- EC50 (Protein RecA): 5.55 µM (active)
